Experimental data published in ChEMBL document CHEMBL5385901, “Drug repurposing of propafenone to discover novel anti-tumor agents by impairing homologous recombination to delay DNA damage recovery of rare disease conjunctival melanoma” (Eur J Med Chem, 2023).
The source made the active and inactive calls. The calls are words filed in the database; no cut-off is given here.

Tests used:
CRMM-2 = experiment: Antiproliferative activity against human CRMM-2 cells assessed as cell growth inhibition incubated for 72 hrs by CCK8 assay; type: functional, cell-based; conditions: CRMM-2, 72 h
[1] = Antiproliferative activity against human HL7702 cells assessed as cell growth inhibition incubated for 72 hrs by CCK8 assay; type: toxicity, cell-based; conditions: HL7702 (L02) cells
[2] = Antiproliferative activity against human PIG1 cells assessed as cell growth inhibition incubated for 72 hrs by CCK8 assay; type: toxicity, cell-based
[3] = Antiproliferative activity against human CM-AS16 cells assessed as cell growth inhibition incubated for 72 hrs by CCK8 assay; type: functional, cell-based; conditions: CM-AS16, 72 h
[4] = Inhibition of homologous recombination in human CRMM-1 cells at 10 uM incubated for 12 hrs by real-time PCR analysis relative to control; type: functional
[5] = Antiproliferative activity against human CM2005.1 cells assessed as cell growth inhibition incubated for 72 hrs by CCK8 assay; type: functional, cell-based; conditions: CM2005.1, 72 h
CRMM-1 [6] = experiment: Antiproliferative activity against human CRMM-1 cells assessed as cell growth inhibition incubated for 72 hrs by CCK8 assay; type: functional, cell-based; conditions: CRMM-1, 72 h
CRMM-1 [7] = experiment: Inhibition of homologous recombination in human CRMM-1 cells at 10 uM incubated for 12 hrs by real-time PCR analysis; type: functional, cell-based

Row | SMILES | IC50 (CRMM-2) [µM] | IC50 at 72 h [1] [µM] | IC50 at 72 h [2] [µM] | IC50 [3] [µM] | inhibition at 10 µM [4] [%] | IC50 [5] [µM] | IC50 (CRMM-1 [6]) [µM] | inhibition (CRMM-1 [7])
1 | O=C(CCCc1ccccc1)c1c(OCCCN2CCCC2)ccc2ccccc12 | 8 | 22 | 7.8 | 11.9 | 71 | 12.8 | 5.6 | 
2 | CCCNCC(O)COc1ccccc1C(=O)CCCc1ccccc1 (configuration not stated) | 28.7 | 46 | 33.2 | 4.9 | 62.2 | 25.2 | 25.3 | 
3 | CCCNCC(O)COc1ccccc1 (configuration not stated) | > 100 |  |  | > 100 |  |  |  | 
4 | CCCNCC(O)COc1cccc(C(=O)CCc2ccccc2)c1 (configuration not stated) | 22.3 | 69.1 | 62.4 | 16.5 | 52.5 | 38 | 28.3 | 
5 | O=C(CCCc1ccccc1)c1c(OCCCN2CCC2)ccc2ccccc12 | 38.4 | 69.6 | 42.1 | 32.3 | 17.9 | 32.9 | 20.6 | 
6 | CCCNCC(O)COc1ccc(C(=O)CCc2ccccc2)cc1 (configuration not stated) | 21 | 44 | 26.8 | 18.9 | 5.5 | 56.2 | 28.5 | 
7 | C=CC(=O)NCCCOc1ccc2ccccc2c1C(=O)CCCc1ccccc1 | 17.2 | 70.2 | 25.7 | 18.2 | 66.9 | 36.9 | 17.3 | 
8 | CCCNCCCOc1ccc2ccccc2c1C(=O)CCCc1ccccc1 | 3.8 | 28.8 | 78.2 | 4 | 75.2 | 4.1 | 3.1 | 
9 | CC(C)(C)CNCCCOc1ccc2ccccc2c1C(=O)CCCc1ccccc1 | 5.1 | 11.1 | 4 | 5 | 52.4 | 5.1 | 8.7 | 
10 | CCCNCC(O)COc1ccccc1CCCc1ccccc1 (configuration not stated) | 20.9 | 19.3 | 15.7 | 6 | 57 | 9.6 | 9.2 | 
11 | O=C(CCCc1ccccc1)c1c(OCc2cccnc2)ccc2ccccc12 | 48.5 | 64.9 | 24.9 |  |  | 58.1 | 16 | inactive
12 | CCCCCCCNCC(O)COc1ccccc1C(=O)CCc1ccccc1 (configuration not stated) | 6.6 | 5.7 | 8.8 | 5.6 | 53.9 | 4.6 | 2.6 | 
13 | CCCNCC(O)COc1ccccc1C(=O)Cc1ccccc1 (configuration not stated) | 30.6 | > 100 | > 100 | 40.7 | 57.9 | 60 | 45.9 | 
14 | O=C(CCc1ccccc1)c1ccccc1 | > 100 |  |  | > 100 |  |  | > 100 | 
15 | CCCCCC(O)COc1ccccc1C(=O)CCc1ccccc1 (configuration not stated) | 54.5 | 22.3 | > 100 | 13.9 | 51.2 | 46.3 | 16.6 | 
16 | CCC(C)(C)NCCCOc1ccc2ccccc2c1C(=O)CCCc1ccccc1 | 3.7 | 10.4 | 5.7 | 3.1 | 44.6 | 4.1 | 4.8 | 
17 | O=C(CC(F)(F)F)NCCCOc1ccc2ccccc2c1C(=O)CCCc1ccccc1 | 42.2 | 29.9 | 18.5 | 21.4 | 40.1 | 19.4 | 9.8 | 
18 | O=C(CCCc1ccccc1)c1c(OCCCN2CCSC2)ccc2ccccc12 | 6.6 | 51.5 | 29.7 | 9.2 | 72.1 | 11.9 | 10.2 | 
19 | CCCOCC(=O)COc1ccccc1C(=O)CCc1ccccc1 | 28.7 | 73.1 | 56.7 | 36.8 | 20.6 | 40.9 | 41.8 | 
20 | C#CCNCCCOc1ccc2ccccc2c1C(=O)CCCc1ccccc1 | 4 | 30.7 | 16 | 4.6 | 53.2 | 11.7 | 6.4 | 
21 | C=CCNCCCOc1ccc2ccccc2c1C(=O)CCCc1ccccc1 | 3.1 | 10.5 | 11.4 | 3.8 | 55.7 | 7.6 | 2.2 | 
